Measurements: patent US20120226186A1 (priority 2009, published 2012)

How the values were obtained:
[1] = all 20 subjects, i.v. computer-controlled infusion
[2] = system: nociceptive flexor reflexes; conditions: Willer, 1985; cited from earlier work

CC(C)c1cccc(C(C)C)c1O [propofol, 2,6-diisopropylphenol]
median effect compartment concentration at loss of reaction to repeated verbal commands ([1]; median): 4 µg/mL
range of effect compartment concentration at loss of reaction to repeated verbal commands ([1]; range): 2 to 5 µg/mL

CN1CC[C@]23c4c5ccc(O)c4O[C@H]2[C@@H](O)C=C[C@H]3[C@H]1C5 [morphine]
reflex threshold of nociceptive flexor reflexes after application of the analgetic [2]: changed in a concentration dependent manner
